Assays:
[1] = biological target: High affinity nerve growth factor receptor (Homo sapiens) (UniProt P04629); experiment: Inhibition of TRKA (unknown origin) at 100 nM
[2] = tested on: Epidermal growth factor receptor (Homo sapiens), P00533 [L861Q]; experiment: Inhibition of EGFR L861Q mutant (unknown origin) at 100 nM; format: protein assay
[3] = biological target: Ribosomal protein S6 kinase alpha-1 (Homo sapiens) (UniProt Q15418); experiment: Inhibition of RSK1 (unknown origin) at 100 nM
Homo sapiens = species: Homo sapiens; experiment: Inhibition of PKA (unknown origin) at 100 nM
[4] = biological target: Serine/threonine-protein kinase mTOR (Homo sapiens) (UniProt P42345); experiment: Inhibition of mTOR (unknown origin) at 100 nM
[5] = biological target: T1, Inhibitor of nuclear factor kappa-B kinase subunit epsilon (Homo sapiens) (UniProt Q14164); experiment: Inhibition of IKKepsilon (unknown origin) at 100 nM
T1 sequence (whole entry): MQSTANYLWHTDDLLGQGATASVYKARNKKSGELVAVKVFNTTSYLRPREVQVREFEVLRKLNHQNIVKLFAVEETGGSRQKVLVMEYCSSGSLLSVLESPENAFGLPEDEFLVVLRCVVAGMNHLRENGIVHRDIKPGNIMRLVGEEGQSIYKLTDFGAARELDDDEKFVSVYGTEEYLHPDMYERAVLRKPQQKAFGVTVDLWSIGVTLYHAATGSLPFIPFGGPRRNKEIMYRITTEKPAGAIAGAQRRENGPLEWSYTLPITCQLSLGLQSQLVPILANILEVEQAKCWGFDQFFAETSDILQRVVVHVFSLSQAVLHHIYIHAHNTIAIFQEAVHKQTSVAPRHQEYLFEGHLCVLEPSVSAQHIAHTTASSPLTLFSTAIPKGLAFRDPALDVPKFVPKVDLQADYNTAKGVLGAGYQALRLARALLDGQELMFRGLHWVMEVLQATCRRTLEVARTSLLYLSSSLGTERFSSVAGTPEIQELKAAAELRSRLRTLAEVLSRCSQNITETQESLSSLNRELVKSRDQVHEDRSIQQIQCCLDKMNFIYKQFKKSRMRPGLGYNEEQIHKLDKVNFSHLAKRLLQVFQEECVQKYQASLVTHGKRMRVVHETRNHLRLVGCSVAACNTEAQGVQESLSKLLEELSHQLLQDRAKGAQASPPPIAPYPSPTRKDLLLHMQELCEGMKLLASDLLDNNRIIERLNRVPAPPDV

[6] = biological target: T2, Epidermal growth factor receptor (Homo sapiens, UniProt P00533); experiment: Inhibition of EGFR T790M/deletion (746 to 750 residues) mutant (unknown origin); format: protein assay
Target sequence in this assay (P00533 25-1210 limits assumed, stated change not applied): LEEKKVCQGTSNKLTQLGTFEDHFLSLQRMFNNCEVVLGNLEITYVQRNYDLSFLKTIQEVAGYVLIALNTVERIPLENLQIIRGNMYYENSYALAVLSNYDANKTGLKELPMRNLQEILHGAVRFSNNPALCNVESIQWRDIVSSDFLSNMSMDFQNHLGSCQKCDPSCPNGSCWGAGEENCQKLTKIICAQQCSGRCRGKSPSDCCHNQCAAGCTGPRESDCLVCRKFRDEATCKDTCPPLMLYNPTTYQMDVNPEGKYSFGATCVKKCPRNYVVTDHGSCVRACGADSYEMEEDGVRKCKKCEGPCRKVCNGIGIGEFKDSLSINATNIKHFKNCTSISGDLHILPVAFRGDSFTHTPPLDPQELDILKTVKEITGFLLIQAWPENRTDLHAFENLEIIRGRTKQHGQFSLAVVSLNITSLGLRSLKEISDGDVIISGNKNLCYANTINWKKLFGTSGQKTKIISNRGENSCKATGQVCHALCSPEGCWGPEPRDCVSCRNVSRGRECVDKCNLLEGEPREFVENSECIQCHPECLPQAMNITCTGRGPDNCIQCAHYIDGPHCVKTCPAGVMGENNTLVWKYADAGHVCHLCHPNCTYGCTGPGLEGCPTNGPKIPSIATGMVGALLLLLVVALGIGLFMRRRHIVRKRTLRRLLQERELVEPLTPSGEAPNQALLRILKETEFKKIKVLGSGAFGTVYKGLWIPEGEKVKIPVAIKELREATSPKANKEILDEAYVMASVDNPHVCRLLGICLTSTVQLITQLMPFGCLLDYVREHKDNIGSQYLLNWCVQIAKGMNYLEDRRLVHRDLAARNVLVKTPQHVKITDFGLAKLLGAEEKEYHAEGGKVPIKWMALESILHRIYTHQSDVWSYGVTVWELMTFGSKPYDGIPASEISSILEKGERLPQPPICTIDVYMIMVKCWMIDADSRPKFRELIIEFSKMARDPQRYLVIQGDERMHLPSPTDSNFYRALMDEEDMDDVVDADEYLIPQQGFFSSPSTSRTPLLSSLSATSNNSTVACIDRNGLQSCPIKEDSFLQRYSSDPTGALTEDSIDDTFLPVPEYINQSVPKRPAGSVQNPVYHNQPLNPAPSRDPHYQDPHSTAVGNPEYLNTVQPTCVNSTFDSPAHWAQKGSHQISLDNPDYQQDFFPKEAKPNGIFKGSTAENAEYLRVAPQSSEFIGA

[7] = biological target: Epidermal growth factor receptor (Homo sapiens, UniProt P00533, L858R); experiment: Inhibition of EGFR L858R mutant (unknown origin); format: protein assay
[8] = biological target: Tyrosine-protein kinase Lck (Homo sapiens) (UniProt P06239); experiment: Inhibition of LCK (unknown origin) at 100 nM
[9] = biological target: Platelet-derived growth factor receptor beta (Homo sapiens) (UniProt P09619); experiment: Inhibition of PDGFRbeta (unknown origin) at 100 nM
[10] = biological target: T2, Epidermal growth factor receptor; experiment: Inhibition of wild type EGFR (unknown origin)
[11] = biological target: Mitogen-activated protein kinase kinase kinase 8 (Homo sapiens) (UniProt P41279); experiment: Inhibition of COT (unknown origin) at 100 nM
TAK1/TAB1 (Homo sapiens) = TAK1/TAB1 (Homo sapiens) (UniProt Q15750+O43318); experiment: Inhibition of TAK1-TAB1 (unknown origin) at 100 nM; format: protein-complex assay
[12] = biological target: Tyrosine-protein kinase Fyn (Homo sapiens) (UniProt P06241); experiment: Inhibition of FYN (unknown origin) at 100 nM
[13] = tested on: Epidermal growth factor receptor (Homo sapiens), P00533 [L858R,T790M]; experiment: Inhibition of EGFR T790M/L858R double mutant (unknown origin) at 100 nM; format: protein assay
[14] = biological target: Leucine-rich repeat serine/threonine-protein kinase 2 (Homo sapiens) (UniProt Q5S007); experiment: Inhibition of LRRK2 (unknown origin) at 100 nM
[15] = biological target: Hepatocyte growth factor receptor (Homo sapiens) (UniProt P08581); experiment: Inhibition of MET (unknown origin) at 100 nM
[16] = biological target: Non-receptor tyrosine-protein kinase TYK2 (Homo sapiens) (UniProt P29597); experiment: Inhibition of TYK2 (unknown origin) at 100 nM
[17] = biological target: Phosphorylase b kinase gamma catalytic chain, skeletal muscle/heart isoform (Homo sapiens) (UniProt Q16816); experiment: Inhibition of PHKgamma1 (unknown origin) at 100 nM
[18] = biological target: Serine/threonine-protein kinase Nek1 (Homo sapiens) (UniProt Q96PY6); experiment: Inhibition of NEK1 (unknown origin) at 100 nM
[19] = biological target: Eukaryotic elongation factor 2 kinase (Homo sapiens) (UniProt O00418); experiment: Inhibition of EEF2K (unknown origin) at 100 nM
[20] = biological target: Fibroblast growth factor receptor 1 (Homo sapiens) (UniProt P11362); experiment: Inhibition of FGFR1 (unknown origin) at 100 nM
[21] = biological target: Cyclin-dependent kinase 5/CDK5 activator 1 (Homo sapiens) (UniProt Q00535+Q15078); experiment: Inhibition of CDK5/p25 (unknown origin) at 100 nM; format: protein-complex assay
[22] = Volume of distribution at steady state in rat; format: ADME, organism-based; conditions: in vivo, read-out: Vdss
[23] = biological target: Interleukin-1 receptor-associated kinase 4 (Homo sapiens) (UniProt Q9NWZ3); experiment: Inhibition of IRAK4 (unknown origin) at 100 nM
[24] = biological target: Tyrosine-protein kinase Yes (Homo sapiens) (UniProt P07947); experiment: Inhibition of YES (unknown origin) at 100 nM
[25] = biological target: Vascular endothelial growth factor receptor 2 (Homo sapiens) (UniProt P35968); experiment: Inhibition of KDR (unknown origin) at 100 nM
[26] = Apparent permeability from the apical to basolateral side in MDCK cells; format: ADME, cell-based, Canis lupus familiaris; conditions: dog
[27] = biological target: Serine/threonine-protein kinase pim-1 (Homo sapiens) (UniProt P11309); experiment: Inhibition of PIM1 (unknown origin) at 100 nM
[28] = biological target: Tyrosine-protein kinase JAK1 (Homo sapiens) (UniProt P23458); experiment: Inhibition of JAK1 (unknown origin) at 100 nM
[29] = tested on: Epidermal growth factor receptor (Homo sapiens), P00533 [T790M]; experiment: Inhibition of EGFR T790M mutant (unknown origin) at 100 nM; format: protein assay
[30] = biological target: Epidermal growth factor receptor (Homo sapiens, UniProt P00533, L858R/T790M); experiment: Inhibition of EGFR T790M/L858R mutant (unknown origin); format: protein assay
[31] = biological target: Receptor-interacting serine/threonine-protein kinase 2 (Homo sapiens) (UniProt O43353); experiment: Inhibition of RIPK2 (unknown origin) at 100 nM
[32] = biological target: 5'-AMP-activated protein kinase catalytic subunit alpha-1 (Homo sapiens) (UniProt Q13131); experiment: Inhibition of PRKAA1 (unknown origin) at 100 nM

Tyrosine-protein kinase Fyn (Homo sapiens), sequence (P06241 2-537 limits assumed): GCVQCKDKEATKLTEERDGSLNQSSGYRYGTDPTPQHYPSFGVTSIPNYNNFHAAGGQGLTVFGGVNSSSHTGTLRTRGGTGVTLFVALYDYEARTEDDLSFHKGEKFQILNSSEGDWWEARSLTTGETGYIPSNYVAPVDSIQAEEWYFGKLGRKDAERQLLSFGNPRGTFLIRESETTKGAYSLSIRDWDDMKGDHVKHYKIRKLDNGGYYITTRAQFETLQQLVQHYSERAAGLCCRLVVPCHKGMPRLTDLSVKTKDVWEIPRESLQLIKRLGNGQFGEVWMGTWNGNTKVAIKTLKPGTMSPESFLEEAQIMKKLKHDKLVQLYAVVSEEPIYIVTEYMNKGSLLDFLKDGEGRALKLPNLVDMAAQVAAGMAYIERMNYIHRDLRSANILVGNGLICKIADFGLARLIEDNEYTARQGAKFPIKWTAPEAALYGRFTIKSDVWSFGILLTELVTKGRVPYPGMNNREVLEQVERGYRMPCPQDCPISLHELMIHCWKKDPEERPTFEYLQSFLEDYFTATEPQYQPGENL
Epidermal growth factor receptor (Homo sapiens), P00533 [L858R,T790M], sequence (P00533 whole entry T790M/L858R, looked up): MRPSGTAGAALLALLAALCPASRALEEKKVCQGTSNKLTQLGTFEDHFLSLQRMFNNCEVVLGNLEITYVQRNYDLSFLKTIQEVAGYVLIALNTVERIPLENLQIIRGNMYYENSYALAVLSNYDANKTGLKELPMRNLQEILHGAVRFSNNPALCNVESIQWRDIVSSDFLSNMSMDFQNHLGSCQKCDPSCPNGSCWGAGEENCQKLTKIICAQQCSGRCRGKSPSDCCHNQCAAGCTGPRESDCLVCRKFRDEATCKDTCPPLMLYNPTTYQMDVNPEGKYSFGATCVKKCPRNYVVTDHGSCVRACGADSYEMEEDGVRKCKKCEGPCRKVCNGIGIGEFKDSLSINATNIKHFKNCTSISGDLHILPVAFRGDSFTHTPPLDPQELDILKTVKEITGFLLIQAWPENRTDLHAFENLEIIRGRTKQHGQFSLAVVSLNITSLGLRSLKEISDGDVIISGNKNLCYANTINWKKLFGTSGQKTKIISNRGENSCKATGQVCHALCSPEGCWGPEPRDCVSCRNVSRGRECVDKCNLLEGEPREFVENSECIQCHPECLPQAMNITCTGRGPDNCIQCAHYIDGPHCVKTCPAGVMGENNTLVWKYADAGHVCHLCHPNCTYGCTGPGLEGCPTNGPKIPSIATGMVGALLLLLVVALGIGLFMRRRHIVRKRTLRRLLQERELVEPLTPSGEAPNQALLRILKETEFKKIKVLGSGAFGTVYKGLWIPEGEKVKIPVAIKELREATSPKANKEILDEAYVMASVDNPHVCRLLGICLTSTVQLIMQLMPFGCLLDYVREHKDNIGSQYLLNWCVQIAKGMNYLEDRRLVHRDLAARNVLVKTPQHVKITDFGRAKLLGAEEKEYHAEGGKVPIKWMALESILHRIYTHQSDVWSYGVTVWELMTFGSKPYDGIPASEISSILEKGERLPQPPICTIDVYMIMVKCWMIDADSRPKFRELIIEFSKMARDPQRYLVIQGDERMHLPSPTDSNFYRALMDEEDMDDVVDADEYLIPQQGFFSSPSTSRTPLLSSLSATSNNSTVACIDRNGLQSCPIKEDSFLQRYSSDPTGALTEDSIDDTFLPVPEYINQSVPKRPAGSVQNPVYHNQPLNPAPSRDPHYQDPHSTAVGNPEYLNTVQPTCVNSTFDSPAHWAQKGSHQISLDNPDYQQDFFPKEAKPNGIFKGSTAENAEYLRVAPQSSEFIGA
Epidermal growth factor receptor (Homo sapiens, UniProt P00533, L858R/T790M), sequence (P00533 25-1210 T790M/L858R limits assumed): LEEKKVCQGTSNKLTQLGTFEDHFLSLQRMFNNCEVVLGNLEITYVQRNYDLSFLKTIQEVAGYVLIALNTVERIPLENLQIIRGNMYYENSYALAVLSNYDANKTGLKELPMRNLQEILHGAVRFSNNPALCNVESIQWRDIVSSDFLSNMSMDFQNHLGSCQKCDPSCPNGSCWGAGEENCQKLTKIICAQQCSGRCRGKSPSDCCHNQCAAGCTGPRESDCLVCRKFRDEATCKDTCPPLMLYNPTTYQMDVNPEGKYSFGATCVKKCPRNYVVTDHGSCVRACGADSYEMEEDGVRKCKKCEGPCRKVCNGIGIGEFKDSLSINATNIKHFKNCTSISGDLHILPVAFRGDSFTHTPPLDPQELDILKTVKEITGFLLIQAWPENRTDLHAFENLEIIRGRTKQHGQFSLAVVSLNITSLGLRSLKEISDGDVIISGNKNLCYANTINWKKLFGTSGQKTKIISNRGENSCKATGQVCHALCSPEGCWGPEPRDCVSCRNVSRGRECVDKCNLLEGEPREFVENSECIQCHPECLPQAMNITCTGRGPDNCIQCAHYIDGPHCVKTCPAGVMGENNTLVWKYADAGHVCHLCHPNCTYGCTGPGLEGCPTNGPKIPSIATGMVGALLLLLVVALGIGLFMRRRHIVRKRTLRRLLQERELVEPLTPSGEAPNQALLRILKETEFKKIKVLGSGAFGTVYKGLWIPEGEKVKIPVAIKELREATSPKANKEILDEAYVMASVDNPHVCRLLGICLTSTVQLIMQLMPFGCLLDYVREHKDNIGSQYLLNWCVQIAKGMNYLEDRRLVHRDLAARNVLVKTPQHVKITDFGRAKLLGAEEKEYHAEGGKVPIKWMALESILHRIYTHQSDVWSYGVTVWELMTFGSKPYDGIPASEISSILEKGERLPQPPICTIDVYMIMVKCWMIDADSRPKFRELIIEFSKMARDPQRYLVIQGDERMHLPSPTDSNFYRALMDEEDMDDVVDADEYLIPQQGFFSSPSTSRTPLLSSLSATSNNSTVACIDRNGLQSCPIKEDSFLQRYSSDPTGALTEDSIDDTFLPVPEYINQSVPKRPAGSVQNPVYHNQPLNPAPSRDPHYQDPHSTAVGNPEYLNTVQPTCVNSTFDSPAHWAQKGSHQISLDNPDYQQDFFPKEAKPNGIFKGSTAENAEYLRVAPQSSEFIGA
Interleukin-1 receptor-associated kinase 4 (Homo sapiens), sequence (Q9NWZ3 whole entry): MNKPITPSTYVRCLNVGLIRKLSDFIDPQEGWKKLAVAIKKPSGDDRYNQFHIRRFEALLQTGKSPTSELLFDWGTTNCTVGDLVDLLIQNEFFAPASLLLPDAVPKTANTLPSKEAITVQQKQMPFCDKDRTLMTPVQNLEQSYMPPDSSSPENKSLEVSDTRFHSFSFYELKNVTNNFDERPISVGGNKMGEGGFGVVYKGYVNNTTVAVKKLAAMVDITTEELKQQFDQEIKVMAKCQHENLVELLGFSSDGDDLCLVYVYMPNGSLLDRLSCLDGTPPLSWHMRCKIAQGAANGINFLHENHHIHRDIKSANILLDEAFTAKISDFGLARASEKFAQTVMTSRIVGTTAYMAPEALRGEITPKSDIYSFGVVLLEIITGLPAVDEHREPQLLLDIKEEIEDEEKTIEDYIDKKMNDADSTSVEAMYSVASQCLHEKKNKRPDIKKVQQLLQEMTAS
Mitogen-activated protein kinase kinase kinase 8 (Homo sapiens), sequence (P41279 whole entry): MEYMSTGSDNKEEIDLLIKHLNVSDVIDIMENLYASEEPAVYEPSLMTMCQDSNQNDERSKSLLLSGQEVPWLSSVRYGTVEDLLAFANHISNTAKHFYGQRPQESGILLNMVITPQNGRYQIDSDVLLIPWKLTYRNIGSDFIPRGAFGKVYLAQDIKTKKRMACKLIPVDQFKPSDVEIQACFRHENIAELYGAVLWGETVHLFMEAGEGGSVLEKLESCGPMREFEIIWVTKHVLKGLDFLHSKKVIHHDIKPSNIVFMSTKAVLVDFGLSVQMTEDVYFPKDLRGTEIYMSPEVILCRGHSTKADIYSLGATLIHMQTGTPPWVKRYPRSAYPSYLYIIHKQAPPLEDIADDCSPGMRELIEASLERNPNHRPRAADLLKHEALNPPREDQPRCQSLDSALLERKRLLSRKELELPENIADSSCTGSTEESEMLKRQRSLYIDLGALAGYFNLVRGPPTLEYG

SMILES	inhibition [1]	inhibition [2]	inhibition [3]	inhibition (Homo sapiens)	inhibition [4]	inhibition [5]	Ki [6]	Ki [7]	inhibition [8]	inhibition [9]	Ki [10]	inhibition [11]	inhibition (TAK1/TAB1 (Homo sapiens))	inhibition [12]	inhibition [13]	inhibition [14]	inhibition [15]	inhibition [16]	inhibition [18]	inhibition [20]	further results
CC1(C)OCc2c(Nc3n[nH]c4ccccc34)nc(-c3cn[nH]c3)nc21	10.2%	99.7%	13.9%	78.8%	-1.6%	-8.7%	1.6 nM	0.5 nM	50.6%	35.2%	0.6 nM	9.1%	8.9%	79.6%	95.9%	13.2%	7.9%	4.9%	6.8%	27.7%	inhibition [17]: 8.5%; inhibition [19]: 7.5%; inhibition [21]: 0%; Vd [22]: 6 L/kg; inhibition [23]: 4.3%; inhibition [24]: 88.1%; inhibition [25]: 97.2%; Papp A→B [26]: 6.7 ×10⁻⁶ cm/s; inhibition [27]: -7.1%; inhibition [28]: 7.7%; inhibition [29]: 95.2%; Ki [30]: 2 nM; inhibition [31]: 97.2%; inhibition [32]: -3.1%
CC1(C)OCc2c(Nc3n[nH]c4c(Cl)cccc34)nc(-c3cn[nH]c3)nc21	12.6%	95.2%	19.5%	88.7%	8.7%	3.2%	1.3 nM	1.3 nM	86.9%	10.8%	1.5 nM	7.4%	3.1%	82%	91.5%	7.5%	7.7%	2%	-4%	85.1%	inhibition [21]: 7.8%; Vd [22]: 3.6 L/kg; inhibition [23]: 16.9%; inhibition [24]: 94.6%; inhibition [25]: 99.3%; Papp A→B [26]: 9.5 ×10⁻⁶ cm/s; inhibition [28]: 3.5%; inhibition [29]: 91.3%; Ki [30]: 2 nM; inhibition [32]: 27.8%

— ChEMBL document CHEMBL3758169, “4-Aminoindazolyl-dihydrofuro[3,4-d]pyrimidines as non-covalent inhibitors of mutant epidermal growth factor receptor tyrosine kinase” (Bioorg Med Chem Lett, 2016)
